Assay [1] has as its target T1, murine AChE (mAChE) (Mus musculus, UniProt P21836).
T1 sequence (P21836 32-614): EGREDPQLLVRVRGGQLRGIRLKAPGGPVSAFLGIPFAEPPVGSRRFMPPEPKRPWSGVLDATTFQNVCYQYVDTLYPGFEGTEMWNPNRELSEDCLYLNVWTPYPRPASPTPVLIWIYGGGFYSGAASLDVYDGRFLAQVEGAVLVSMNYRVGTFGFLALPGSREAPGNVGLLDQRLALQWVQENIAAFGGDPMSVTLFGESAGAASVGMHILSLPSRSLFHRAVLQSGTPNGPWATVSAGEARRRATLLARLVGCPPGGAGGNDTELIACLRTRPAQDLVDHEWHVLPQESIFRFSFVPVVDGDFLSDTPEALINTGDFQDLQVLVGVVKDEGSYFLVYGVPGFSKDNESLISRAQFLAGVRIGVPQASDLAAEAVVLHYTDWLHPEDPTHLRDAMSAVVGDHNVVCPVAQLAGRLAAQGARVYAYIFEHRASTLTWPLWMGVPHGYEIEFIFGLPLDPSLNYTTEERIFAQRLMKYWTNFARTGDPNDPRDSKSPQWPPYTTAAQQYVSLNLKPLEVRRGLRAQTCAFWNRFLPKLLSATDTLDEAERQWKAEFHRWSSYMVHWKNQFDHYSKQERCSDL
Put plainly: biochemical. The class given is binding.

The target in assay [2] is T1, murine AChE (mAChE). The assay can be described thus: biochemical.
Assay [3] deals with T1, murine AChE (mAChE). Put plainly: Equilibrium binding of TFT to mAChE.
The next assay deals with human recombinant AChE. The conditions noted are these: cited from earlier work.
The mark [4] stands for this setting: IC50 values (Mean ± SEM), Reduction of TFT Fluorescence.
Where [5] appears, read: IC50 values (Mean ± SEM), Reduction of AChE activity.
The mark [6] stands for this setting: read-out: IC50 values (Mean ± SEM), Reduction of TFT Fluorescence, pH 7.4.
The mark [7] stands for this setting: read-out: IC50 values (Mean ± SEM), Reduction of AChE activity, pH 7.4.

The values that follow come from article PMC3758491 (Pesticide biochemistry and physiology, 2013).

Where two headings read alike, the source gives them in different places.

One may read the IC50 as the point on the concentration scale where inhibition reaches its midpoint. Regarding `CNC(=O)O/N=C/C(C)(C)SC` [Aldicarb, aldicarb], the “Ratio = IC50 TFT assay/IC50 Ellman assay” value at murine AChE (mAChE) [1] turned out to be 0.9. Also, the IC50 against murine AChE (mAChE) [1] (setting [4]) came out at 565 nM; at murine AChE (mAChE) [2] (setting [5]), 645 nM.
For `C=CC[N+](C)(C)c1ccc(CCC(=O)CCc2ccc([N+](C)(C)CC=C)cc2)cc1.[Br-].[Br-]` [BW284C51, BW284c51], the “Ratio = IC50 TFT assay/IC50 Ellman assay” value at murine AChE (mAChE) [1] is 1.9. Also, the IC50 on murine AChE (mAChE) [1] (setting [6]) was determined as 8.3 nM; at murine AChE (mAChE) [2] (setting [7]), 4.4 nM.
As to `CNC(=O)Oc1cccc2c1OC(C)(C)O2` [Bendiocarb, bendiocarb], on murine AChE (mAChE) [1], the “Ratio = IC50 TFT assay/IC50 Ellman assay” value is reported as 0.4. Besides, the results for the IC50 against murine AChE (mAChE) [1] (setting [4]) and at murine AChE (mAChE) [2] (setting [5]) were 20 nM and 46 nM, respectively.
Taken in the same sequence, the figures for `CNC(=O)Oc1cccc(C(C)(C)C)c1` [Compound 1, 3-tert-butylphenyl methylcarbamate] were 0.4, 25 nM and 62 nM.
In the same order, the values of `CCC(C)CSc1ccccc1OC(=O)NC` (stereo not shown) [Compound 2, 2-(2-methylbutylthio)phenyl methylcarbamate] are 0.9, 8900 nM and 10300 nM.
As for `CC[N+](C)(C)c1cccc(O)c1` [Edrophonium, edrophonium], on murine AChE (mAChE) [1], the “Ratio = IC50 TFT assay/IC50 Ellman assay” value turned out to be 0.33, the “fold lower IC50 in TFT assay than in Ellman assay” value is on record as 3 fold and the “maximum percentage reduction of total TFT fluorescence” value was “around 30%”. At murine AChE (mAChE) [1] (setting [4]), this compound registered an IC50 of 1120 nM. At murine AChE (mAChE) [2] (setting [5]), this compound displayed an IC50 of 3430 nM.
As for `CC[n+]1c(-c2ccccc2)c2cc(N)ccc2c2ccc(N)cc21` [Ethidium Bromide, ethidium bromide], at murine AChE (mAChE) [1], the “Ratio = IC50 TFT assay/IC50 Ellman assay” value worked out at 4.1 and the “TFT/Ellman IC50 ratio” value is recorded as “around four times higher”. This compound also gave an IC50 at murine AChE (mAChE) [1] (setting [4]) of 16000 nM. On murine AChE (mAChE) [2] (setting [5]), this compound had an IC50 of 4000 nM.
`Cc1nc(N(C)C)nc(OC(=O)N(C)C)c1C` [Pirimicarb, pirimicarb]: at murine AChE (mAChE) [1], the “Ratio = IC50 TFT assay/IC50 Ellman assay” value is reported as 0.6. Also, the results for the IC50 against murine AChE (mAChE) [1] (setting [4]) and at murine AChE (mAChE) [2] (setting [5]) were 454 nM and 738 nM, respectively.
On to `CC[N+](C)(CC)CCC[n+]1c(-c2ccccc2)c2cc(N)ccc2c2ccc(N)cc21` [Propidium Iodide, propidium iodide], for which, on murine AChE (mAChE) [1], the “Ratio = IC50 TFT assay/IC50 Ellman assay” value was determined as 1.0. Further, on murine AChE (mAChE) [1], the “TFT fluorescence remaining after adding propidium iodide” value is listed as 0%. In addition, the IC50 against murine AChE (mAChE) [1] (IC50, TFT assay) came to 700 nM; against murine AChE (mAChE) [1] (setting [4]), 670 nM; on murine AChE (mAChE) [2] (IC50, Ellman assay), 700 nM; against murine AChE (mAChE) [2] (setting [5]), 662 nM.
Turning to `CNC(=O)Oc1ccccc1OC(C)C` [Propoxur, propoxur], the “Ratio = IC50 TFT assay/IC50 Ellman assay” value at murine AChE (mAChE) [1] came to 0.13. In addition, at murine AChE (mAChE) [1], the “fold lower IC50 in TFT assay than in Ellman assay” value is listed as 7.7 fold. Further, the IC50 was 60 nM at murine AChE (mAChE) [1] (setting [4]) and 466 nM against murine AChE (mAChE) [2] (setting [5]).
One may read the Kd as a measure of binding affinity in units of concentration. Consider `Cc1ccc2c(c1)sc(-c1ccc(N(C)C)cc1)[n+]2C` [TFT, thioflavin-T], for which the Kd on murine AChE (mAChE) [3] is 1400 ± 200 nM; at human recombinant AChE (read-out: Kd of TFT, ref De Ferrari et al. [17]), 890 nM; at human recombinant AChE (read-out: Kd of TFT, ref Sultatos and Kaushik [13]), 360 nM. Also, the “increase of TFT fluorescence in the presence of mAChE over free solution” value on murine AChE (mAChE) [3] (10 uM TFT) came to 1.96 fold. The “Bmax, maximum specific TFT fluorescence in the presence of mAChE” value at murine AChE (mAChE) [3] (mean ± SEM, n = 7) stood at 562 ± 23 fluorescent units.
In the case of `COc1cc2c3cc1Oc1cc(ccc1O)C[C@@H]1c4c(cc(OC)c(O)c4Oc4ccc(cc4)C[C@@H]3N(C)CC2)CC[N+]1(C)C` [Tubocurarine, d-tubocurarine], at murine AChE (mAChE) [1], the “Ratio = IC50 TFT assay/IC50 Ellman assay” value is listed as 0.7. The IC50 against murine AChE (mAChE) [1] (IC50, TFT assay) was 50000 to 70000 nM; at murine AChE (mAChE) [1] (setting [4]) it was 50000 nM; at murine AChE (mAChE) [2] (IC50, Ellman assay) it was 50000 to 70000 nM; against murine AChE (mAChE) [2] (setting [5]) it was 69000 nM.
With benzylpiperidine, on murine AChE (mAChE) [1], the “Ratio = IC50 TFT assay/IC50 Ellman assay” value was determined as 0.95. Moreover, the “maximum percentage reduction of total TFT fluorescence” value at murine AChE (mAChE) [1] is listed as “around 30%”. In addition, the IC50 on murine AChE (mAChE) [1] (setting [6]) stood at 159000 nM; at murine AChE (mAChE) [1] (read-out: potency (IC50) for reducing thioflavin-T fluorescence), 159000 nM; on murine AChE (mAChE) [2] (setting [7]) it was 167000 nM.
